Results reported in PMC6369734, “Spy vs. spy: selecting the best reporter for ^19F NMR competition experiments” (Chemical Communications (Cambridge, England), 2019).
Where two headings read alike, the source gives them in different places.

Assays:
[1] = biological target: T1, VHL (VBC complex: pVHL54-213, eloB1-104, eloC17-112) (Homo sapiens, UniProt P40337); test: Surface plasmon resonance (SPR) steady-state binding to immobilised biotinylated AviVBC; set-up: key to K D, SPR (footnote symbol instead of value): ^c: High responses in the SPR experiments, promiscuous or unspecific binders
T1 construct: equimolar complex of pVHL54-213, eloB1-104 and; made in house; host or cells: E. coli
Procedure: The KD of each compound to VHL was determined by surface plasmon resonance (SPR) experiments.
3. Protein expression, purification and biotinylation
The VHL E3 ligase is a multi-protein complex composed of five proteins: VHL protein (pVHL), elongin B (eloB), elongin C (eloC), Cullin-2 (Cul2) and Ring-box protein 1 (Rbx1).[3] Since the compounds developed in this work bind solely to the VHL protein, the VBC complex (equimolar complex of pVHL54-213, eloB1-104 and eloC17-112) was used in all experiments, as it can be readily expressed in E. coli with high yields,[4] while the full E3 ligase would require baculovirus-insect cells expression system.[5] The expression and purification of VBC was performed as described previously by our group[2] and employed directly in all NMR experiments.
For the surface plasmon resonance (SPR) experiments, a VBC complex containing an AviTagTM in the N-terminus of eloB (AviVBC) was purified using the same procedure described for VBC. The modified eloB/eloC expression plasmid was previously developed in-house by Dr. Michael Roy and kindly shared. The AviVBC complex was site-specifically biotinylated in the AviTag using the GST-BirA method previously described by […]
4. Surface plasmon resonance experiments
The SPR experiments were performed with a Biacore T200 instrument (GE Healthcare). All measurements were performed at 20 °C with buffer containing 10 mM HEPES, pH 7.5, 150 mM NaCl, 1 mM TCEP, 0.005% (v/v) Tween® 20 and 2% (v/v) dimethyl sulfoxide (DMSO). Biotinylated AviVBC (~0.5 μM) was immobilised at 22 °C onto a Series S sensor chip SA (GE Heathcare) to levels of approximately 3500-4000 response units […]
Solutions of each spy molecule were prepared in buffer at concentrations based on previous structure-activity relationship studies of VHL ligands (K D expected in the nanomolar range for structures like spy molecules 16 and 22, or in the milimolar range for spy molecules similar to 1 and 9). From this first screen, the binding affinities were roughly estimated using the Biacore T200 evaluation software (GE Healthcare), then measurements were repeated using concentrations above and below the KD obtained in the first round to generate better curves for fitting the data accurately. Contact and dissociation times varied across the different compounds tested, but in […]
dissociated from the surface in less than sixty seconds.
Data analysis was performed using the steady state responses of the double-referenced sensorgrams (raw data subtracted from blank and reference surface injections) obtained for each concentration tested. These responses were plotted against the respective concentrations and the data fitted to a 1: 1 binding model u sing the Biacore T200 evaluation software and the following equation: […]
Where Req is the steady-state response at a given concentration C. Deviations in Req were corrected by adding an ‘offset’ term to the equation. KD is the dissociation constant to be determined and RMAX is the maximum response expected for a given compound according to the equation below:
Where n is the stoichiometry of the interaction ( in this case, n = 1) and RProtein is the immobilization level of protein. MWCompound and MWProtein are the molecular weights of compound and protein, respectively. Sensorgrams and fitting parameters for all spy molecules can be found in section 7.

VHL (VBC complex) [2] = biological target: T2, VHL (VBC complex) (Homo sapiens, UniProt P40337); test: 19F CPMG NMR transverse relaxation rate (R2) and R2 contrast (C2) of spy molecule with and without protein; type: binding; conditions: for R2 contrast – C2: supplement 8.1
T2 construct: equimolar complex of pVHL54-213, eloB1-104 and; made in house; host or cells: E. coli
Description: Due to the large CSA of fluorine and the significant differences in the fluorine isotropic chemical shift (δF) between the free and bound states, the transverse relaxation rate (R2) is a well-established sensitive parameter to detect ligand binding.[4] Therefore, fluorine NMR experiments including a Carr–Purcell–Meiboom–Gill (CPMG) spin-echo filter[10] before acquisition were employed to monitor ligand binding to VHL by measuring peak intensity, as changes in other NMR parameters, such as chemical shift and peak width, were not as significant. The R2 values of the CF3 peak of each compound in the absence and in the presence of protein were determined by performing multiple ^19F CPMG experiments varying the CPMG filter (Fig. 2a). To quantify the shift in R2 upon binding, the R2 contrast (C2)[11] was determined. Ideally, a good spy molecule should have a large increase in R2 (fast relaxation) when protein is present, resulting in a large assay window for the competition experiments (Fig. 2b).
5. Measurement of the transverse relaxation rates by 19F CPMG NMR
All the NMR experiments were performed in a 500 MHz Bruker AVANCE N MR spectrometer equipped with a CPQCI -F cryoprobe. To measure the transverse relaxation rates (R 2), a solution of each spy molecule at 100 μM was prepared in 50 mM potassium phosphate monobasic (KH2PO4), pH 7.5, 100 mM NaCl, 1 mM TCEP, 2% (v/v) DMSO, 20% D2O and 10 µM trifluoroacetic acid (TFA). For each solution, 19F CPMG experiments […]
Due to the fast relaxation of molecules 21 and 22, these experiments were repeated with shorter CPMG filters (50, 100, 150, 200, 300, 400, 700 and 1000 ms). The fluorine peaks were integrated and plotted against the resp ective CPMG filters. The R 2 relaxation rates were obtained from fitting the data as a n exponential decay (GraphPad Prism 6) according to the equation below: [7]
Where I(t) is the 19F signal intensity or integral, t is the total CPMG filter in seconds, I(0) is the signal intensity when t = 0. To obtain the R2 upon addition of prot ein, all the experiments above were repeated in presence of VBC at 1 µM. Experiments were performed as triplicates and the R 2 contrasts (C2) were obtained according to the equation below: [8]
Where R2Free is the R2 obtained for the spy molecule free in solution and R2Observed is the R2 obtained with the spy molecule in presence of VBC. The raw data, fitting, R2 and C2 values for each spy molecule can be found in section 8.1. For the R2 measurements using molecule 19 at varied concentrations of spy molecule and protein, see section 8.2 . For the R2 measurements using spy molecules 6 and 11 (used to generate figures S 2, S3 and S4) see

VHL (VBC complex) [3] = biological target: T2, VHL (VBC complex); test: as above; type: binding; conditions: for R2 contrast – C2: section 8.3: spy molecules at 50 μM, VBC 1 μM
[4] = SPR, 20 °C, steady-state 1:1 fit, footnote b values fitted because RMAX was not reached experimentally, read-out: K D, SPR
[5] = SPR, responses too low, data could not be fitted, read-out: KD
[6] = Spy molecule 100 μM, no protein
[7] = SPR steady-state fit, supplement section 7, read-out: KD (Biacore T200 fit)
[8] = section 8.3: spy molecules at 50 μM in absence of VBC (sub-head prints Spy molecule 100 μM)
[9] = section 8.3: spy molecules at 50 μM in presence of VBC 1 μM (sub-head prints 100 μM)
[10] = SPR fit with very large error or RMAX above theoretical, unspecific / promiscuous binding suspected, read-out: KD (Biacore T200 fit, judged unreliable)

T1 sequence (P40337 54-213): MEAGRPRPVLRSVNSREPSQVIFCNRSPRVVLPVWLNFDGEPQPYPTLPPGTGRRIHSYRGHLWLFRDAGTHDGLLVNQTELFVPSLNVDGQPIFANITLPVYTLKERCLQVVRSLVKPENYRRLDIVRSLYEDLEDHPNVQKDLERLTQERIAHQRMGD
T1 sequence (Q15370 1-104 partner limits assumed): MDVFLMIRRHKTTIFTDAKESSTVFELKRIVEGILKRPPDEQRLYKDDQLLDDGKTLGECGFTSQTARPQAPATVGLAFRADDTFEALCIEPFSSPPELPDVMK
T1 sequence (Q15369 17-112 partner limits assumed): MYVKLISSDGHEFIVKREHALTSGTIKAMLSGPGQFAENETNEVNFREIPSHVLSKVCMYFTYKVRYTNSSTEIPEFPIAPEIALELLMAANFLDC
T2 sequence (P40337 54-213): as the sequence (P40337 54-213) above
T2 sequence (Q15370 1-104 partner limits assumed): as the sequence (Q15370 1-104 partner limits assumed) above
T2 sequence (Q15369 17-112 partner limits assumed): as the sequence (Q15369 17-112 partner limits assumed) above

SMILES	Kd [1, 4] [µM]	Kd [1, 5] [µM]	R2 (VHL (VBC complex) [2]; Spy molecule 100 μM + VBC 1 μM) [s⁻¹]	R2 contrast – C2 (VHL (VBC complex) [2]; Spy molecule 100 μM + VBC 1 μM) [%]	R2 (VHL (VBC complex) [2]; [6]) [s⁻¹]	Kd [1, 7] [µM]	R2 (VHL (VBC complex) [3]; [8]) [s⁻¹]	R2 (VHL (VBC complex) [3]; [9]) [s⁻¹]	R2 contrast – C2 (VHL (VBC complex) [3]) [%]	K D, SPR (footnote symbol instead of value) ([1]; SPR)	Kd [1, 10] [µM]	binding kinetics / dissociation rates by SPR ([1]; SPR)	SPR binding behaviour ([1]; SPR, supplement section 7)
O=C(NCc1ccc(Br)c(C(F)(F)F)c1)[C@@H]1C[C@@H](O)CN1 [Compound 1]	> 1500	> 1000	1.115 ± 0.020	4.1 ± 3.1	1.069 ± 0.028	–	–	–	–	–	–	–	–
CC(=O)N1C[C@H](O)C[C@H]1C(=O)NCc1ccc(Br)c(C(F)(F)F)c1 [Compound 2]	657 ± 49	–	1.251 ± 0.021	6.5 ± 2.2	1.170 ± 0.019	657	–	–	–	–	–	–	–
Cc1ncsc1-c1ccc(CNC(=O)[C@@H]2C[C@@H](O)CN2)cc1C(F)(F)F [Compound 5]	> 1500	> 1000	0.936 ± 0.011	2.2 ± 1.8	0.915 ± 0.012	–	–	–	–	–	–	–	–
CC(=O)N1C[C@H](O)C[C@H]1C(=O)NCc1ccc(-c2scnc2C)c(C(F)(F)F)c1 [Compound 6]	878 ± 98	–	1.760 ± 0.039	37.7 ± 2.6	1.096 ± 0.020	878	1.255 ± 0.043	1.951 ± 0.062	35.7 ± 4.0	–	–	–	–
O=C(NCc1ccc(Br)cc1C(F)(F)F)[C@@H]1C[C@@H](O)CN1 [Compound 9]	> 1500	> 1000	1.279 ± 0.022	0.9 ± 2.7	1.268 ± 0.026	–	–	–	–	–	–	–	–
CC(C)(C)CC(=O)N1C[C@H](O)C[C@H]1C(=O)NCc1ccc(Br)cc1C(F)(F)F [Compound 11]	110 ± 9	–	2.740 ± 0.096	47.9 ± 4.1	1.427 ± 0.033	110	1.534 ± 0.071	3.122 ± 0.145	50.9 ± 5.7	–	–	–	–
Cc1ncsc1-c1ccc(CNC(=O)[C@@H]2C[C@@H](O)CN2)c(C(F)(F)F)c1 [Compound 13]	–	–	1.609 ± 0.017	3.2 ± 2.0	1.558 ± 0.028	–	–	–	–	^c	2530	–	unspecific / promiscuous binding to the protein surface
O=C(NCc1ccc(Br)cc1)C1CC(O)CN1C(=O)C(F)(F)F (stereo not drawn) [Compound 17]	645 ± 100	–	3.189 ± 0.066	62.0 ± 2.6	1.213 ± 0.028	–	–	–	–	–	–	–	–
CC(C)(C)C(NC(=O)C(F)(F)F)C(=O)N1CC(O)CC1C(=O)NCc1ccc(Br)cc1 (stereo not drawn) [Compound 21]	0.447 ± 0.085	–	4.109 ± 0.247	3.7 ± 8.8	3.959 ± 0.262	0.447	–	–	–	–	–	too high to be determined accurately	–

More lines, main results first:

Kd [1, 4] [µM]	Kd [1, 5] [µM]	R2 (VHL (VBC complex) [2]; Spy molecule 100 μM + VBC 1 μM) [s⁻¹]	R2 contrast – C2 (VHL (VBC complex) [2]; Spy molecule 100 μM + VBC 1 μM) [%]	R2 (VHL (VBC complex) [2]; [6]) [s⁻¹]	Kd [1, 7] [µM]	R2 (VHL (VBC complex) [3]; [8]) [s⁻¹]	R2 (VHL (VBC complex) [3]; [9]) [s⁻¹]	R2 contrast – C2 (VHL (VBC complex) [3]) [%]	K D, SPR (footnote symbol instead of value) ([1]; SPR)	Kd [1, 10] [µM]	binding kinetics / dissociation rates by SPR ([1]; SPR)	SMILES	SPR binding behaviour ([1]; SPR, supplement section 7)
4.39 ± 0.12	–	1.924 ± 0.037	38.9 ± 2.5	1.175 ± 0.027	4.39	–	–	–	–	–	–	CC(=O)NC(C(=O)N1CC(O)CC1C(=O)NCc1ccc(Br)c(C(F)(F)F)c1)C(C)(C)C (stereo not drawn) [Compound 4]	–
67.1 ± 14	–	3.614 ± 0.088	62.1 ± 3.0	1.368 ± 0.033	67.1	–	–	–	–	–	–	Cc1ncsc1-c1ccc(CNC(=O)[C@@H]2C[C@@H](O)CN2C(=O)CC(C)(C)C)cc1C(F)(F)F [Compound 7]	–
2.99 ± 0.75	–	1.639 ± 0.022	17.7 ± 2.2	1.349 ± 0.027	2.99	–	–	–	–	–	–	CC(=O)NC(C(=O)N1CC(O)CC1C(=O)NCc1ccc(-c2scnc2C)c(C(F)(F)F)c1)C(C)(C)C (stereo not drawn) [Compound 8]	–
–	–	3.425 ± 0.073	53.9 ± 2.5	1.579 ± 0.022	–	–	–	–	^c	223	–	CC(=O)N1C[C@H](O)C[C@H]1C(=O)NCc1ccc(-c2scnc2C)cc1C(F)(F)F [Compound 14]	bind unspecifically / promiscuously to the protein surface
35.2 ± 7	–	2.634 ± 0.058	41.3 ± 2.7	1.545 ± 0.035	35.2	–	–	–	–	–	–	Cc1ncsc1-c1ccc(CNC(=O)[C@@H]2C[C@@H](O)CN2C(=O)CC(C)(C)C)c(C(F)(F)F)c1 [Compound 15]	–
0.268 ± 0.03	–	1.828 ± 0.031	1.3 ± 2.4	1.805 ± 0.032	0.268	–	–	–	–	–	too high to be determined accurately	CC(=O)NC(C(=O)N1CC(O)CC1C(=O)NCc1ccc(-c2scnc2C)cc1C(F)(F)F)C(C)(C)C (stereo not drawn) [Compound 16]	–
